Measured values published in ChEMBL document CHEMBL1201862, “PubChem BioAssay data set” (2004).
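Cells were grown in 96-well plates and exposed to each compound for 48 hours at five concentrations; endpoints were interpolated linearly between bracketing concentrations, or set to the highest concentration if not reached. The concentration for 50% growth inhibition is given as GI50.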 Calls of active or inactive are those of the source. Cut-off read from the data, not from the text of the source: active = GI50 up to about 1.1 µM and inactive = higher.

Legend:
Assay in all cases: NCI tumour cell line growth inhibition, 48 h
PC-3 = test system: PC-3
HOP-92 = test system: HOP-92
EKVX = test system: EKVX
SF-268 = test system: SF-268
HOP-62 = test system: HOP-62
COLO 205 = test system: COLO 205
MCF7 = test system: MCF7
CAKI-1 = test system: CAKI-1
HCT-15 = test system: HCT-15
CCRF-CEM = test system: CCRF-CEM
TK-10 = test system: TK-10
HCC 2998 = test system: HCC 2998
Hs-578T = test system: Hs-578T
HL-60 = test system: HL-60
M14 = test system: M14
RPMI-8226 = test system: RPMI-8226
SNB-75 = test system: SNB-75
UO-31 = test system: UO-31
DU-145 = test system: DU-145
SK-MEL-5 = test system: SK-MEL-5
SK-MEL-2 = test system: SK-MEL-2
MDA-MB-435 = test system: MDA-MB-435
NCI-H460 = test system: NCI-H460
HCT-116 = test system: HCT-116
MOLT-4 = test system: MOLT-4
NCI-H23 = test system: NCI-H23
KM12 = test system: KM12
UACC-257 = test system: UACC-257
BT-549 = test system: BT-549
OVCAR-4 = test system: OVCAR-4
NCI-H522 = test system: NCI-H522
NCI/ADR-RES = test system: NCI/ADR-RES
ACHN = test system: ACHN
UACC-62 = test system: UACC-62
MDA-N = test system: MDA-N
OVCAR-5 = test system: OVCAR-5
NCI-H226 = test system: NCI-H226
SNB-19 = test system: SNB-19
HT-29 = test system: HT-29
SK-OV-3 = test system: SK-OV-3
A549 = test system: A549
T47D = test system: T47D
Malme-3M = test system: Malme-3M
LOX IMVI = test system: LOX IMVI
MDA-MB-231 = test system: MDA-MB-231
SW-620 = test system: SW-620
A498 = test system: A498
SF-295 = test system: SF-295
OVCAR-8 = test system: OVCAR-8
U-251 = test system: U-251
SN12C = test system: SN12C
786-0 = test system: 786-0
OVCAR-3 = test system: OVCAR-3
IGROV-1 = test system: IGROV-1
SK-MEL-28 = test system: SK-MEL-28
K562 = test system: K562
SR = test system: SR
RXF 393 = test system: RXF 393
SF-539 = test system: SF-539

CN(CC1(CO)CCC1)c1cc(Cl)nc(N)n1
GI50 (PC-3): > 100 µM (inactive) | GI50 (HOP-92): > 100 µM (inactive) | GI50 (EKVX): 43.3 µM (inactive) | GI50 (SF-268): > 100 µM (inactive) | GI50 (HOP-62): > 100 µM (inactive) | GI50 (COLO 205): > 100 µM (inactive) | GI50 (MCF7): > 100 µM (inactive) | GI50 (CAKI-1): > 100 µM (inactive) | GI50 (HCT-15): > 100 µM | GI50 (CCRF-CEM): > 100 µM (inactive) | GI50 (TK-10): > 100 µM (inactive) | GI50 (HCC 2998): > 100 µM (inactive) | GI50 (Hs-578T): > 100 µM (inactive) | GI50 (HL-60): > 100 µM (inactive) | GI50 (M14): > 100 µM (inactive) | GI50 (RPMI-8226): > 100 µM (inactive) | GI50 (SNB-75): 78.5 µM (inactive) | GI50 (UO-31): > 100 µM (inactive) | GI50 (DU-145): > 100 µM (inactive) | GI50 (SK-MEL-5): > 100 µM (inactive) | GI50 (SK-MEL-2): > 100 µM (inactive) | GI50 (MDA-MB-435): > 100 µM (inactive) | GI50 (NCI-H460): > 100 µM (inactive) | GI50 (HCT-116): > 100 µM (inactive) | GI50 (MOLT-4): > 100 µM (inactive) | GI50 (NCI-H23): > 100 µM (inactive) | GI50 (KM12): > 100 µM (inactive) | GI50 (UACC-257): > 100 µM (inactive) | GI50 (BT-549): > 100 µM (inactive) | GI50 (OVCAR-4): 58.9 µM (inactive) | GI50 (NCI-H522): > 100 µM (inactive) | GI50 (NCI/ADR-RES): > 100 µM (inactive) | GI50 (ACHN): > 100 µM (inactive) | GI50 (UACC-62): > 100 µM (inactive) | GI50 (MDA-N): > 100 µM (inactive) | GI50 (OVCAR-5): > 100 µM (inactive) | GI50 (NCI-H226): > 100 µM (inactive) | GI50 (SNB-19): > 100 µM (inactive) | GI50 (HT-29): > 100 µM (inactive) | GI50 (SK-OV-3): > 100 µM (inactive) | GI50 (A549): > 100 µM (inactive) | GI50 (T47D): > 100 µM (inactive) | GI50 (Malme-3M): > 100 µM (inactive) | GI50 (LOX IMVI): > 100 µM (inactive) | GI50 (MDA-MB-231): > 100 µM (inactive) | GI50 (SW-620): > 100 µM (inactive) | GI50 (A498): > 100 µM (inactive) | GI50 (SF-295): > 100 µM (inactive) | GI50 (OVCAR-8): > 100 µM (inactive) | GI50 (U-251): > 100 µM (inactive) | GI50 (SN12C): > 100 µM (inactive) | GI50 (786-0): > 100 µM (inactive) | GI50 (OVCAR-3): > 100 µM (inactive) | GI50 (IGROV-1): > 100 µM (inactive) | GI50 (SK-MEL-28): > 100 µM (inactive) | GI50 (K562): > 100 µM (inactive) | GI50 (SR): > 100 µM (inactive) | GI50 (RXF 393): > 100 µM (inactive) | GI50 (SF-539): > 100 µM (inactive)

O=C(CC(=O)N(C(=O)c1ccccc1)c1ccc(Cl)cc1)N/N=C\c1ccccc1O
GI50 (PC-3): 39.3 µM (inactive) | GI50 (HOP-92): 24.6 µM (inactive) | GI50 (EKVX): 37 µM (inactive) | GI50 (SF-268): 24.8 µM (inactive) | GI50 (HOP-62): 31.8 µM (inactive) | GI50 (COLO 205): 85.5 µM (inactive) | GI50 (MCF7): 60.7 µM (inactive) | GI50 (CAKI-1): > 100 µM (inactive) | GI50 (HCT-15): 53.1 µM | GI50 (CCRF-CEM): 2.86 µM (inactive) | GI50 (TK-10): 32.3 µM (inactive) | GI50 (HCC 2998): 33.6 µM (inactive) | GI50 (Hs-578T): 26 µM (inactive) | GI50 (HL-60): > 100 µM (inactive) | GI50 (M14): > 100 µM (inactive) | GI50 (RPMI-8226): > 100 µM (inactive) | GI50 (SNB-75): 22.9 µM (inactive) | GI50 (UO-31): 38.7 µM (inactive) | GI50 (DU-145): > 100 µM (inactive) | GI50 (SK-MEL-5): 64 µM (inactive) | GI50 (SK-MEL-2): 45.1 µM (inactive) | GI50 (MDA-MB-435): > 100 µM (inactive) | GI50 (NCI-H460): 96.2 µM (inactive) | GI50 (HCT-116): 30.6 µM (inactive) | GI50 (MOLT-4): 2.61 µM (inactive) | GI50 (NCI-H23): 43.4 µM (inactive) | GI50 (KM12): 33.5 µM (inactive) | GI50 (UACC-257): > 100 µM (inactive) | GI50 (BT-549): 21.1 µM (inactive) | GI50 (OVCAR-4): > 100 µM (inactive) | GI50 (NCI-H522): > 100 µM (inactive) | GI50 (NCI/ADR-RES): 50.6 µM (inactive) | GI50 (ACHN): 77.3 µM (inactive) | GI50 (MDA-N): > 100 µM (inactive) | GI50 (OVCAR-5): 36.6 µM (inactive) | GI50 (NCI-H226): 35.5 µM (inactive) | GI50 (SNB-19): 30.3 µM (inactive) | GI50 (HT-29): > 100 µM (inactive) | GI50 (SK-OV-3): 17.2 µM (inactive) | GI50 (A549): 82 µM (inactive) | GI50 (T47D): 49.7 µM (inactive) | GI50 (Malme-3M): > 100 µM (inactive) | GI50 (LOX IMVI): 58.1 µM (inactive) | GI50 (MDA-MB-231): 12.9 µM (inactive) | GI50 (SW-620): > 100 µM (inactive) | GI50 (A498): 65 µM (inactive) | GI50 (SF-295): 25.9 µM (inactive) | GI50 (OVCAR-8): 35.2 µM (inactive) | GI50 (U-251): 48.2 µM (inactive) | GI50 (SN12C): > 100 µM (inactive) | GI50 (786-0): 40 µM (inactive) | GI50 (OVCAR-3): > 100 µM (inactive) | GI50 (IGROV-1): 25.4 µM (inactive) | GI50 (SK-MEL-28): > 100 µM (inactive) | GI50 (K562): > 100 µM (inactive) | GI50 (SR): 29.4 µM (inactive) | GI50 (RXF 393): 36.8 µM (inactive) | GI50 (SF-539): 36.1 µM (inactive)
